Where two headings read alike, the source gives them in different places.
Legend:
H9C2 cardiomyocytes [1] = assay: cells; conditions: Rattus norvegicus, H9c2, read-out: Cell viability
Protocol: (§3) H9C2 cardiomyocytes in the logarithmic growth phase were seeded into 96-well plates at a density of 7×10^4 cells/mL, with 100 μL per well.
(§4) After 24 hours of culture, the culture medium of the H/R and drug-treated groups was replaced with serum-free glucose-free DMEM medium (100 μL per well). The cells were then placed in an anaerobic incubator and cultured under hypoxic conditions in a 37° C. cell culture incubator. After 6 hours, the supernatant of the H/R and drug-treated groups was removed and replaced with high-glucose medium containing 10% fetal bovine serum (100 μL per well). Each drug-treated group received the corresponding concentration of the drug, while the H/R model group and the blank control group received an equal volume of DMSO.
(§5) After removing the supernatant, 100 μL of CCK solution (the volume of CCK accounted for 10% of the DMEM culture medium volume) was added to each well. The cells were cultured in the cell culture incubator for 1 hour, and the absorbance was measured at 450 nm using a microplate reader to calculate the cell viability. Cell viability was calculated as follows: Cell viability (%)=(Experimental well-Blank well)/(Control well-Blank well)×100%.

H9C2 cardiomyocytes [2] = assay: Angiotensin II (Ang II)-induced cardiomyocyte hypertrophy model, crystal violet, cell surface area; assay type: cell-based, rat; conditions: for surface area of a single cardiomyocyte, View 1 / surface area of a single cardiomyocyte, View 2 / surface area of a single cardiomyocyte, View 3 / surface area of a single cardiomyocyte, View 4 / surface area of a single cardiomyocyte, View 5 / Myocardial surface area: 40 μM Ang II 24 h; for surface area of a single cardiomyocyte, View 1: field of view 1; for surface area of a single cardiomyocyte, View 2: field of view 2; for surface area of a single cardiomyocyte, View 3: field of view 3; for surface area of a single cardiomyocyte, View 4: field of view 4; for surface area of a single cardiomyocyte, View 5: field of view 5; for Myocardial surface area: mean of 5 views
Protocol: Adjust the H9C2 cardiomyocytes in the logarithmic growth phase to a density of 1.2×10^5 cells/well and inoculate them into six-well plates. […] After culturing for 24 hours, the drug administration groups are added with 40 μM Ang II and the corresponding concentrations of drugs. The Ang II+diltiazem 10 μM group is added with 40 μM Ang II and 10 μM diltiazem. The Ang II model group is added with 40 μM Ang II and an equal volume of DMSO. The blank control group is added with an equal volume of DMSO. Then, continue culturing for 24 hours. Discard the culture medium, wash the cells 3 times with PBS. Add 1 mL of methanol to each well and fix the cells at −20° C. for 20 minutes, and then let them return to room temperature. After discarding the methanol, add 1 mL of 0.5% crystal violet staining solution to each well and stain for 10 minutes. Wash the cells with clean water and take pictures under an inverted microscope. Randomly select fields of view for photographing. Use Image J software to measure the sum of the surface areas of all cardiomyocytes in the field of view and count the number of cells in the field of view at the same time to obtain the surface area of each cardiomyocyte. The surface area of a single cardiomyocyte=the sum of the surface areas of all cardiomyocytes in the field of view/the number of cardiomyocytes in the field of view.

[3] = test system: mice with isoproterenol (ISO)-induced ischemic heart disease; assay: ISO-induced ischemic heart disease mouse model: Ca2+ in myocardial tissue; assay type: in vivo
Protocol: (§1) Male C57BL/6 mice were allowed to acclimate to the environment and then randomly divided into 9 groups, namely the blank control group, the ISO model group, the ISO+diltiazem 20 mg/kg positive control drug group, the ISO+Formula I (0.1, 0.5, 2 mg/kg) groups, and the ISO+Formula II (0.1, 0.5, 2 mg/kg) groups. Mice in the drug administration groups were intragastrically administered the corresponding doses of Formula I and Formula II compounds once a day at the same time. Mice in the positive drug diltiazem group were intragastrically administered the corresponding dose of diltiazem once a day. Mice in the blank control group and the model group were given the same amount of solvent (0.5% CMC-Na). The administration volume was 10 mL/kg, and the administration was continuous for 11 days.
(§2) From the 4th to the 10th day of drug administration, ISO modeling was carried out. The blank control group was subcutaneously injected with normal saline, and mice in the other groups were subcutaneously injected with ISO at a dose of 40 mg/kg (modeling was performed 2 hours after drug administration), for a total of 7 times.
Calcium ion detection in myocardial tissue: After the experiment ended, some myocardial tissue was taken to prepare a 10% myocardial tissue homogenate with ultrapure water. The homogenate was centrifuged at 1200 rpm for 20 minutes at 4° C. to separate the supernatant of the myocardial tissue homogenate. The calcium ion content was determined according to the kit instructions; protein quantification was performed using the BCA protein assay method.

[4] = test system: mice with isoproterenol (ISO)-induced ischemic heart disease; assay: ISO-induced ischemic heart disease mouse model: serum ANP and NT-proBNP (ELISA); assay type: in vivo; conditions: ISO 40 mg/kg s.c. 7 times
Protocol: as §1, §2
Detection of Myocardial Hypertrophy/Heart Failure Biomarkers: After the drug administration ended, the animals' eyes were enucleated to collect blood. The blood was left to stand at room temperature for 2 hours, and then centrifuged at 3500 rpm for 20 minutes to separate the serum. The contents of serum ANP and NT-proBNP were determined according to the instructions of the ELISA kit.

Rat H9C2 cardiomyocytes [5] = conditions: 800 μM ISO 24 h, MTT 570 nm
Rat H9C2 cardiomyocytes [6] = assay: cells; conditions: H9c2, 24 h, read-out: Cell viability
Protocol: (§6) Rat H9C2 cardiomyocytes in the logarithmic growth phase were seeded at a density of 7×10^4 cells/mL into 96-well plates, with 100 μL per well. […] After 24 hours of culture, the drug treatment groups were respectively added with 50 μM Ang II and the corresponding concentration of the drug. The Ang II model group was added with 50 μM Ang II and an equal volume of DMSO, and the blank control group was added with an equal volume of DMSO. Then, the cells were cultured for another 24 hours. After removing the supernatant, 100 μL of MTT solution (0.5 mg/mL) was added to each well, and the plates were placed in an incubator for 4 hours. After removing the supernatant again, 150 μL of DMSO was added to each well, and the mixture was shaken and mixed evenly for 10 minutes. The absorbance was measured at 570 nm using a microplate reader to calculate the cell viability.
(§7) Cell viability (%)=[(As−Ab)/(Ac−Ab)]×100% • As: Experimental well (culture medium containing cells, MTT, Ang II); • Ac: Control well (culture medium containing cells, MTT, without Ang II); • Ab: Blank well (culture medium without cells, MTT, without Ang II).

[7] = test system: mice with isoproterenol (ISO)-induced ischemic heart disease; assay: ISO-induced ischemic heart disease mouse model: serum CK-MB (ELISA); assay type: in vivo
Protocol: as §1, §2
Myocardial enzyme CK-MB detection: After the administration ended, blood was collected from the animals by enucleation. The blood was left to stand at room temperature for 2 hours, and then centrifuged at 3500 rpm for 20 minutes to separate the serum. The content of CK-MB in the serum was determined according to the instructions of the ELISA kit.

Rat H9C2 cardiomyocytes [8] = conditions: 50 μM Ang II 24 h, MTT 570 nm
Protocol: as §6, §7

H9C2 cardiomyocytes [9] = conditions: 6 h hypoxia, 12 h reoxygenation, CCK 450 nm
Protocol: as §3, §4, §5

[10] = 0.1 mg/kg intragastric once a day 11 days
[11] = 0.5 mg/kg intragastric once a day 11 days
[12] = 2 mg/kg intragastric once a day 11 days

## Cc1c(O)cc(O)c2c(=O)c(Cc3ccc4c(c3)OCO4)coc12 [Formula II, 3-(benzo[d][1,3]dioxol-5-ylmethyl)-5,7-dihydroxy-8-methyl-4H-chromen-4-one]
H9C2 cardiomyocytes [1]
  viability at 0.1 µM: 60.5%
  viability at 0.3 µM: 58.8%
  viability at 1 µM: 52.1%
  viability at 3 µM: 61.5%
  viability at 5 µM: 44.8%
  viability at 10 µM: 47.9%
H9C2 cardiomyocytes [2]; 0.1 μM, 0.5 μM and 1 μM, 40 μM AngII 24 h
  number of cardiomyocytes (decrease in cell number caused by AngII): significantly improve the decrease in cell number caused by AngII
H9C2 cardiomyocytes [2]; 0.1 μM
  surface area of a single cardiomyocyte, View 1: 346.49 μm^2
  surface area of a single cardiomyocyte, View 2: 347.86 μm^2
  surface area of a single cardiomyocyte, View 3: 326.61 μm^2
  surface area of a single cardiomyocyte, View 4: 381.47 μm^2
  surface area of a single cardiomyocyte, View 5: 353.63 μm^2
  Myocardial surface area: 351.21 ± 17.66^### μm^2
H9C2 cardiomyocytes [2]; 0.5 μM
  surface area of a single cardiomyocyte, View 1: 420.10 μm^2
  surface area of a single cardiomyocyte, View 2: 338.84 μm^2
  surface area of a single cardiomyocyte, View 3: 355 μm^2
  surface area of a single cardiomyocyte, View 4: 334.83 μm^2
  surface area of a single cardiomyocyte, View 5: 342.18 μm^2
  Myocardial surface area: 358.19 ± 31.68^### μm^2
H9C2 cardiomyocytes [2]; 1 μM
  surface area of a single cardiomyocyte, View 1: 365.93 μm^2
  surface area of a single cardiomyocyte, View 2: 372.44 μm^2
  surface area of a single cardiomyocyte, View 3: 366.76 μm^2
  surface area of a single cardiomyocyte, View 4: 392.9 μm^2
  surface area of a single cardiomyocyte, View 5: 373.9 μm^2
  Myocardial surface area: 374.39 ± 9.76^### μm^2
[3]; [10]
  Ca^2+: 0.046 ± 0.015 mmol/gprot
[3]; [11]
  Ca^2+: 0.054 ± 0.014 mmol/gprot
[3]; [12]
  Ca^2+: 0.059 ± 0.009 mmol/gprot
[4]; [10]
  ANP: 303.60 ± 37.76 pg/mL
  NT-proBNP: 34.07 ± 4.10 pg/mL
[4]; [11]
  ANP: 264.38 ± 27.96 pg/mL
  NT-proBNP: 31.31 ± 2.24 pg/mL
[4]; [12]
  ANP: 258.19 ± 52.28 pg/mL
  NT-proBNP: 31.12 ± 2.33 pg/mL
Rat H9C2 cardiomyocytes [5]; 0.1 μM
  OD: 0.964 ± 0.132
Rat H9C2 cardiomyocytes [5]; 0.3 μM
  OD: 0.964 ± 0.031
Rat H9C2 cardiomyocytes [5]; 1 μM
  OD: 0.904 ± 0.072^###&&
Rat H9C2 cardiomyocytes [5]; 3 μM
  OD: 0.963 ± 0.064
Rat H9C2 cardiomyocytes [5]; 5 μM
  OD: 0.784 ± 0.067
Rat H9C2 cardiomyocytes [5]; 10 μM
  OD: 0.806 ± 0.067
Rat H9C2 cardiomyocytes [6]
  viability at 0.1 µM: 81.4%
  viability at 0.3 µM: 73.5%
  viability at 1 µM: 77.6%
  viability at 3 µM: 73%
  viability at 10 µM: 75.6%
[7]; [10]
  CK-MB: 15.48 ± 1.76 ng/mL
[7]; [11]
  CK-MB: 12.89 ± 2.29 ng/mL
[7]; [12]
  CK-MB: 12.91 ± 1.53 ng/mL
Rat H9C2 cardiomyocytes [8]; 0.1 μM
  OD: 0.876 ± 0.044
Rat H9C2 cardiomyocytes [8]; 0.3 μM
  OD: 0.791 ± 0.062
Rat H9C2 cardiomyocytes [8]; 1 μM
  OD: 0.835 ± 0.052
Rat H9C2 cardiomyocytes [8]; 3 μM
  OD: 0.785 ± 0.048
Rat H9C2 cardiomyocytes [8]; 10 μM
  OD: 0.814 ± 0.053
H9C2 cardiomyocytes [9]; 0.1 μM
  OD: 0.630 ± 0.070
H9C2 cardiomyocytes [9]; 0.3 μM
  OD: 0.612 ± 0.059
H9C2 cardiomyocytes [9]; 1 μM
  OD: 0.542 ± 0.075
H9C2 cardiomyocytes [9]; 3 μM
  OD: 0.640 ± 0.070
H9C2 cardiomyocytes [9]; 5 μM
  OD: 0.466 ± 0.023
H9C2 cardiomyocytes [9]; 10 μM
  OD: 0.498 ± 0.071

From patent US20260285849A1, “METHYLOPHIOPOGONONE A DERIVATIVE, AND PREPARATION AND USE THEREOF” (INSTITUTE OF MATERIA MEDICA, CHINESE ACADEMY OF MEDICAL …, priority 2022, published 2026)
